Measurements from the supplement of paper PMC10307832.

What was measured:
Test in all cases: relative viability (nuclei count vs DMSO), 5 days (fraction); higher = more cells survive
[1] = compound: C1CNCCC1C2=CC(=NN2)C3=CC=NC=C3 + CC(=O)c1c(C)c2cnc(Nc3ccc(N4CCNCC4)cn3)nc2n(C2CCCC2)c1=O [Palbociclib] (partner 0.5 µM)
Procedure, shortened: (§1)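 Lung cancer cell lines, seeded in 1536-well plates, were treated the following day by pin tool with a single drug or with five library-drug doses (not always all listed) in √10 steps on top of a fixed anchor-drug dose. Cells were fixed and nuclei stained in one step after 5 days, and nuclei were counted. Relative viability is the nuclei count for treated wells divided by that for vehicle wells, reported as medians of duplicate plates.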

[2] = compound: C1CNCCC1C2=CC(=NN2)C3=CC=NC=C3 + CS(=O)(=O)N1CCN(Cc2cc3nc(-c4cccc5[nH]ncc45)nc(N4CCOCC4)c3s2)CC1 [Pictilisib] (partner 1 µM)
Procedure, shortened: as §1

[3] = compound: C[C@@H](N)c1ccc(C(=O)Nc2ccnc3[nH]ccc23)cc1 + CS(=O)(=O)CCNCc1ccc(-c2ccc3ncnc(Nc4ccc(OCc5cccc(F)c5)c(Cl)c4)c3c2)o1 [Lapatinib] (partner 2 µM)
Procedure, shortened: as §1

[4] = compound: C[C@@H](N)c1ccc(C(=O)Nc2ccnc3[nH]ccc23)cc1 + O=C(c1cc(Cc2n[nH]c(=O)c3ccccc23)ccc1F)N1CCN(C(=O)C2CC2)CC1 [Olaparib] (partner 8 µM)
Procedure, shortened: as §1

NCI-H1755
relative viability ([1]; first compound 0.08 µM): 0.437
relative viability ([1]; first compound 0.8 µM): 0.442
relative viability ([1]; first compound 2.53 µM): 0.462
relative viability ([1]; first compound 8 µM): 0.365
relative viability ([2]; first compound 0.08 µM): 0.423
relative viability ([2]; first compound 0.8 µM): 0.412
relative viability ([2]; first compound 2.53 µM): 0.419
relative viability ([2]; first compound 8 µM): 0.372
relative viability ([3]; first compound 0.04 µM): 0.874
relative viability ([3]; first compound 0.1265 µM): 1
relative viability ([3]; first compound 0.4 µM): 1.05
relative viability ([3]; first compound 1.265 µM): 0.705
relative viability ([3]; first compound 4 µM): 0.685
relative viability ([4]; first compound 0.04 µM): 0.91
relative viability ([4]; first compound 0.1265 µM): 0.963
relative viability ([4]; first compound 0.4 µM): 0.873
relative viability ([4]; first compound 1.265 µM): 0.839
relative viability ([4]; first compound 4 µM): 0.743

NCI-H23
relative viability ([1]; first compound 0.08 µM): 0.444
relative viability ([1]; first compound 2.53 µM): 0.602
relative viability ([1]; first compound 8 µM): 0.647
relative viability ([2]; first compound 0.08 µM): 0.447
relative viability ([2]; first compound 0.8 µM): 0.533
relative viability ([2]; first compound 2.53 µM): 0.648
relative viability ([2]; first compound 8 µM): 0.601
relative viability ([3]; first compound 0.04 µM): 0.945
relative viability ([3]; first compound 0.1265 µM): 1.27
relative viability ([3]; first compound 0.4 µM): 1.18
relative viability ([3]; first compound 4 µM): 0.924
relative viability ([4]; first compound 0.04 µM): 0.311
relative viability ([4]; first compound 0.1265 µM): 0.335
relative viability ([4]; first compound 0.4 µM): 0.368
relative viability ([4]; first compound 4 µM): 0.3

ABC-1
relative viability ([1]; first compound 0.08 µM): 0.468
relative viability ([1]; first compound 0.8 µM): 0.617
relative viability ([1]; first compound 2.53 µM): 0.733
relative viability ([1]; first compound 8 µM): 0.76
relative viability ([2]; first compound 0.08 µM): 0.735
relative viability ([2]; first compound 0.8 µM): 0.812
relative viability ([2]; first compound 2.53 µM): 0.865
relative viability ([2]; first compound 8 µM): 0.869
relative viability ([3]; first compound 0.04 µM): 1.16
relative viability ([3]; first compound 0.1265 µM): 1.02
relative viability ([3]; first compound 0.4 µM): 1.2
relative viability ([3]; first compound 4 µM): 1.36
relative viability ([4]; first compound 0.04 µM): 0.511
relative viability ([4]; first compound 0.1265 µM): 0.752
relative viability ([4]; first compound 0.4 µM): 0.942
relative viability ([4]; first compound 1.265 µM): 0.953
relative viability ([4]; first compound 4 µM): 0.693

201T
relative viability ([1]; first compound 0.08 µM): 0.376
relative viability ([1]; first compound 0.8 µM): 0.353
relative viability ([1]; first compound 2.53 µM): 0.355
relative viability ([1]; first compound 8 µM): 0.362
relative viability ([2]; first compound 0.08 µM): 0.724
relative viability ([2]; first compound 0.8 µM): 0.664
relative viability ([2]; first compound 2.53 µM): 0.7
relative viability ([2]; first compound 8 µM): 0.681
relative viability ([3]; first compound 0.04 µM): 1
relative viability ([3]; first compound 0.1265 µM): 0.989
relative viability ([3]; first compound 0.4 µM): 1.09
relative viability ([3]; first compound 1.265 µM): 0.971
relative viability ([3]; first compound 4 µM): 1.24
relative viability ([4]; first compound 0.04 µM): 0.867
relative viability ([4]; first compound 0.1265 µM): 0.883
relative viability ([4]; first compound 0.4 µM): 0.818
relative viability ([4]; first compound 1.265 µM): 0.895
relative viability ([4]; first compound 4 µM): 0.949

NCI-H1734
relative viability ([1]; first compound 0.08 µM): 0.303
relative viability ([1]; first compound 0.8 µM): 0.34
relative viability ([1]; first compound 2.53 µM): 0.309
relative viability ([1]; first compound 8 µM): 0.345
relative viability ([2]; first compound 0.08 µM): 0.427
relative viability ([2]; first compound 0.8 µM): 0.451
relative viability ([2]; first compound 2.53 µM): 0.469
relative viability ([2]; first compound 8 µM): 0.452
relative viability ([3]; first compound 0.04 µM): 1.02
relative viability ([3]; first compound 0.1265 µM): 1.15
relative viability ([3]; first compound 0.4 µM): 1.01
relative viability ([3]; first compound 4 µM): 1.12
relative viability ([4]; first compound 0.04 µM): 0.642
relative viability ([4]; first compound 0.1265 µM): 0.591
relative viability ([4]; first compound 0.4 µM): 0.652
relative viability ([4]; first compound 1.265 µM): 0.559
relative viability ([4]; first compound 4 µM): 0.45

NCI-H520
relative viability ([1]; first compound 0.08 µM): 0.176
relative viability ([1]; first compound 0.8 µM): 0.167
relative viability ([1]; first compound 2.53 µM): 0.219
relative viability ([1]; first compound 8 µM): 0.147
relative viability ([2]; first compound 0.08 µM): 0.277
relative viability ([2]; first compound 0.8 µM): 0.324
relative viability ([2]; first compound 2.53 µM): 0.293
relative viability ([2]; first compound 8 µM): 0.351
relative viability ([3]; first compound 0.04 µM): 1.08
relative viability ([3]; first compound 0.1265 µM): 0.953
relative viability ([3]; first compound 0.4 µM): 0.949
relative viability ([3]; first compound 1.265 µM): 0.742
relative viability ([3]; first compound 4 µM): 1.03
relative viability ([4]; first compound 0.04 µM): 0.359
relative viability ([4]; first compound 0.1265 µM): 0.332
relative viability ([4]; first compound 0.4 µM): 0.29
relative viability ([4]; first compound 1.265 µM): 0.373
relative viability ([4]; first compound 4 µM): 0.318

NCI-H1650
relative viability ([1]; first compound 0.08 µM): 0.365
relative viability ([1]; first compound 0.8 µM): 0.315
relative viability ([1]; first compound 2.53 µM): 0.379
relative viability ([1]; first compound 8 µM): 0.343
relative viability ([2]; first compound 0.08 µM): 0.353
relative viability ([2]; first compound 0.8 µM): 0.701
relative viability ([2]; first compound 2.53 µM): 0.632
relative viability ([2]; first compound 8 µM): 0.63
relative viability ([3]; first compound 0.04 µM): 0.701
relative viability ([3]; first compound 0.1265 µM): 0.63
relative viability ([3]; first compound 0.4 µM): 0.772
relative viability ([3]; first compound 1.265 µM): 0.155
relative viability ([3]; first compound 4 µM): 0.834
relative viability ([4]; first compound 0.04 µM): 0.81
relative viability ([4]; first compound 0.1265 µM): 0.943
relative viability ([4]; first compound 0.4 µM): 0.812
relative viability ([4]; first compound 1.265 µM): 0.822
relative viability ([4]; first compound 4 µM): 0.763

NCI-H1355
relative viability ([1]; first compound 0.08 µM): 0.387
relative viability ([1]; first compound 0.8 µM): 0.324
relative viability ([1]; first compound 2.53 µM): 0.421
relative viability ([1]; first compound 8 µM): 0.38
relative viability ([2]; first compound 0.08 µM): 0.501
relative viability ([2]; first compound 0.8 µM): 0.52
relative viability ([2]; first compound 2.53 µM): 0.517
relative viability ([2]; first compound 8 µM): 0.423
relative viability ([3]; first compound 0.04 µM): 0.973
relative viability ([3]; first compound 0.1265 µM): 0.972
relative viability ([3]; first compound 0.4 µM): 1.03
relative viability ([3]; first compound 4 µM): 0.924
relative viability ([4]; first compound 0.04 µM): 0.723
relative viability ([4]; first compound 0.1265 µM): 0.75
relative viability ([4]; first compound 0.4 µM): 0.877
relative viability ([4]; first compound 1.265 µM): 0.709
relative viability ([4]; first compound 4 µM): 0.696

NCI-H1915
relative viability ([1]; first compound 0.08 µM): 0.502
relative viability ([1]; first compound 0.8 µM): 0.521
relative viability ([1]; first compound 2.53 µM): 0.493
relative viability ([1]; first compound 8 µM): 0.529
relative viability ([2]; first compound 0.08 µM): 1.03
relative viability ([2]; first compound 0.8 µM): 0.885
relative viability ([2]; first compound 2.53 µM): 0.965
relative viability ([2]; first compound 8 µM): 0.906
relative viability ([3]; first compound 0.04 µM): 0.908
relative viability ([3]; first compound 0.1265 µM): 0.972
relative viability ([3]; first compound 0.4 µM): 0.966
relative viability ([3]; first compound 4 µM): 0.848
relative viability ([4]; first compound 0.1265 µM): 0.229
relative viability ([4]; first compound 0.4 µM): 0.26
relative viability ([4]; first compound 4 µM): 0.216
